Test results taken from patent publication US7666644B2, “Glyphosate-N-acetyltransferase (GAT) genes” (Verdia, Inc., priority 2004, dated 2010).

Tests used:
[1] = tested on: soybeans expressing GAT and HRA transgenes; assay: T1 pre-emergence sulfonamide spray of soybeans expressing GAT and HRA transgenes; format: in vivo, soybean; design: key: 9=no leaf/stem discoloration; 7=minor leaf/stem discoloration; 5=worse leaf/stem discoloration; 3=severely discolored plant or dying plant; 1=dead plant; settings: 70 gms a.i./hectare, 10 days post spray, all HRA and GAT events
Protocol: T1 seed generated from experiments as described in Example 17, were planted in pots of Tama Silt loam in the greenhouse. Pots were immediately sprayed with a pre-emergence application of chlorimuron, rimsulfuron or tribenuron at a rate of 70 gms a.i./hectare. Germinating plants were evaluated 10 days post spray application based on plant discoloration scores described in Example 17. All HRA and GAT events survived all pre-emergence spray applications with a rating of 9 (uninjured).

[2] = tested on: soybeans expressing GAT and HRA transgenes; assay: T1 post-emergence sulfonamide spray of soybeans expressing GAT and HRA transgenes; format: in vivo, soybean; settings: GAT (SEQ ID NO: 824)/SAMS promoter-HRA events
Protocol: T1 seed generated from experiments as described in Example 17 were germinated in RediEarth^R 360 medium in the greenhouse. Plants were sprayed at the V2-V3 stage (14 days after potting) with thifensulfuron, chlorimuron, rimsulfuron or tribenuron (70, 70, 35, 35 gm a.i./hectare, respectively). Plants were evaluated 10 days post application based on plant discoloration scores described in Example 17.
Events having a plant discoloration rating 7 or 8 after thifensulfuron spray were sprayed with either a 2× or 4× application of glyphosate after 10 days as per methods described in Example 17. Events were evaluated based on discoloration scores described in Example 17. All thifensulfuron tolerant events survived the glyphosate spray with score of 7 or 8 (results not shown).

[3] = biological target: T1, Bacillus licheniformis strain B6 glyphosate-N-acetyltransferase (GAT), native, SEQ ID NO:7 (Bacillus paralicheniformis, UniProt A0AAW6KBE1); assay: Apparent KM and kcat of purified GAT (Example 2); format: biochemical; settings: read-out: KM for Acetyl CoA; apparent; 5 mM glyphosate, 5 mM morpholine pH 7.7, 50% methanol; MS detection
T1 construct: untagged
Protocol: Lysis of the cells was effected by the addition of 1 ml of the following buffer to 0.2 g of cells: 25 mM HEPES, pH 7.3, 100 mM KCl and 10% methanol (HKM) plus 0.1 mM EDTA, 1 mM DTT, 1 mg/ml chicken egg lysozyme, and a protease inhibitor cocktail obtained from Sigma and used according to the manufacturer's recommendations. After 20 minutes incubation at room temperature (e.g., 22-25° C.), lysis was completed with brief sonication. The lysate was centrifuged and the supernatant was desalted by passage through Sephadex G25 equilibrated with HKM. Partial purification was obtained by affinity chromatography on CoA Agarose (Sigma). The column was equilibrated with HKM and the clarified extract was allowed to pass through under hydrostatic pressure.
Purification to homogeneity was obtained by gel filtration of the partially purified protein through Superdex 75 (Pharmacia).
Initial reaction rates were determined using mass spectrometric detection of N-acetyl glyphosate. Five μl were repeatedly injected into the instrument and reaction rates were obtained by plotting reaction time vs area of the integrated peak (FIG. 6).

[4] = tested on: native or low activity GAT enzymes (glyphosate-N-acetyltransferase); assay: Kinetics typical of native or low activity GAT enzymes (Example 4); format: biochemical; settings: read-out: KM for acetyl CoA
[5] = tested on: Nicotiana benthamiana leaves; assay: Transient expression by Agrobacterium infiltration, GAT protein by SDS-PAGE and blot with antiGAT polyclonal antibody; format: in vivo; settings: infiltrated leaves, 3 days, as a percent of total protein
Protocol: A binary vector with a dMMV-gat-UBQ3 cassette in the T-DNA was transformed into competent Agrobacterium tumefaciens strain C58 cells by electroporation (McCormac et al., Mol. Biotechnol. 9:155-159, 1998). After growth on LB+40 ug/ml kanamycin plates for 2 days at 28° C., colonies were inoculated into LB+40 ug/ml kanamycin liquid medium and shaken overnight at 28° C. The Agrobacterium cells were collected by centrifugation at 4000 g for 10 minutes and then resuspended in a volume of 10 mM MgSO4 equivalent to the initial culture volume. This bacterial suspension was forced or “infiltrated” into the intercellular spaces of Nicotiana benthamiana leaves using a 1 ml plastic syringe (with no needle). By infiltrating 200-300 μl of bacterial suspension into each spot (typically 3-4 cm^2 in infiltrated area), 4 or more spots could be arranged on a single leaf still attached to the plant. In some cases the gat-containing Agrobacterium strain was diluted 5:1 or 10:1 with a second Agrobacterium strain lacking gat prior to infiltration. This dilution step has the effect of reducing the overall expression of the gat gene in the plant cells, thereby preventing saturation and allowing easier visualization of expression differences between variants and constructs. After 3 days the leaf material was ground, extracted in aqueous buffer, and centrifuged. […]

maize plants = assay: Effect of temperature variation on glyphosate tolerance of T1 maize expressing GAT transgenes; format: in vivo; settings: cool/cold, warm and hot conditions, 0×, 4×, 6×, 8× glyphosate at V2, scored 5 and 14 days
Protocol: Maize plants expressing GAT variant transgenes 10—4F2 (SEQ ID NO:203), 17-15H3 (SEQ ID NO:549), and 18-28D9b (SEQ ID NO:814) were produced using the methods described in Example 13. The effect of temperature on glyphosate tolerance was evaluated in T1 plants. The T1 plants were grown in cool/cold (day 14° C., night 8° C.), warm (day 28° C., night 20° C.), and hot (day 37° C., night 20° C.) conditions. T1 plants were sprayed at V2 with four different glyphosate spray treatments (0×, 4×, 6×, and 8×). Plants were scored at 5 and 14 days after treatment for leaf discoloration and plant height comparisons as described in Example 13.

[6] = Kinetics of GAT variants modified next to the initiating methionine; format: biochemical
Text: A second way to increase plant expression of microbial genes is to increase the G+C content near the initiating methionine residue. Naturally-occurring coding sequences in plants tend to contain two or three G and/or C residues immediately downstream of the ATG initiation codon (Joshi et al. (1997) Plant Mol. Biol. 35:993-1001). Introducing into the gat coding sequence one or two CG-rich codons immediately downstream of the ATG intitiation codon may create a more plant-like coding sequence and thus may enhance its expression in plants.

[7] = 35 gm a.i./ha post-emergence at V2-V3, 10 days after treatment
[8] = 70 gm a.i./ha post-emergence at V2-V3, 10 days after treatment

Question: Which results are given for CCS(=O)(=O)c1cccnc1S(=O)(=O)NC(=O)Nc1nc(OC)cc(OC)n1 [Rimsulfuron]?
Answer: plant discoloration rating [1]: 9; Average Resistance scores [2, 7]: 2.21

Question: For COc1nc(C)nc(NC(=O)NS(=O)(=O)c2ccsc2C(=O)O)n1 [Thifensulfuron], which “Average Resistance scores” value [2, 8] is on record?
Answer: Its value is 7.81.

Question: For CC(=O)SCCNC(=O)CCNC(=O)[C@H](O)C(C)(C)COP(=O)(O)OP(=O)(O)OC[C@H]1O[C@@H](n2cnc3c(N)ncnc32)[C@H](O)[C@@H]1OP(=O)(O)O [acetyl CoA], which Km [3] is on record?
Answer: The Km was 2 µM.

Question: What about the Km [4] of the same molecule?
Answer: The Km was less than 25 µM.

Question: Which plant discoloration rating [1] does the source give for COc1cc(Cl)nc(NC(=O)NS(=O)(=O)c2ccccc2C(=O)O)n1 [Chlorimuron] here?
Answer: The plant discoloration rating was 9.

Question: And the “Average Resistance scores” value [2, 8]?
Answer: The value was 7.75.

Question: For COc1nc(C)nc(N(C)C(=O)NS(=O)(=O)c2ccccc2C(=O)O)n1 [Tribenuron], which plant discoloration rating [1] is on record?
Answer: The plant discoloration rating was 9.

Question: And the “Average Resistance scores” value [2, 7]?
Answer: The value was 3.83.

B1: GAT4621: altered gat coding sequence encoding 25-8H7 M1MA; Ala codon inserted and more frequently utilized codons throughout (nucleic acid)
DNA: ATGGCTATTGAGGTTAAGCCTATCAACGCAGAGGATACCTATGACCTTAGGCATAGAGTGCTCAGACCAAACCAGCCTATCGAAGCCTGCATGTTTGAGTCTGACCTTACTAGGAGTGCATTTCACCTTGGTGGATTCTACGGAGGTAAACTGATTTCCGTGGCTTCATTCCACCAAGCTGAGCACTCTGAACTTCAAGGTAAGAAGCAGTACCAGCTTAGAGGTGTGGCTACCTTGGAAGGTTATAGAGAGCAGAAGGCTGGTTCCAGTCTCGTGAAACACGCTGAAGAGATTCTCAGAAAGAGAGGTGCTGACATGATCTGGTGTAATGCCAGGACATCTGCTTCAGGATACTACAGGAAGTTGGGATTCAGTGAGCAAGGAGAGGTGTTCGATACTCCTCCAGTTGGACCTCACATCCTGATGTATAAGAGGATCACATAA
modifications: Synthetic nucleic acid sequence GAT4621; CDS (1)...(444): encodes 25-8H7 M1MA (SEQ ID NO:950)
notes: Ala codon inserted and more frequently utilized codons throughout
Question: Which “level of GAT protein accumulated compared to the unmodified GAT25-8H7/4618 gene” value [5] does the source give for B1 here?
Answer: Its value is “about two-fold greater”.

B2: 10—4F2: evolved GAT; enzyme SEQ ID NO:454, transgene printed as SEQ ID NO:203 (protein)
chain: MLEVKPINAEDTYELRHRILRPNQPIEACMFESDLLRGAFHLGGFYRGKLISIASFHQAEHSELQGQKQYQLRGMATLEGYREQKAGSSLIRHAEEILRKRGADMLWCNARTSASGYYKKLGFSEQGEIFETPPVGPHILMYKRLT
modifications: 10_4F2
Question: For B2, which “effect of growth temperature on glyphosate tolerance” value (maize plants) is on record?
Answer: The value was “not adversely effected”.

B3: 18-28D9b: GAT variant transgene, SEQ ID NO:814 (nucleic acid)
DNA: ATGATAGAGGTGAAACCGATTAACGCAGAGGATACCTATGAACTAAGGCATAGAATACTCAGACCAAACCAGCCGATAGAAGCGTGTATGTTTGAAAGCGATTTACTTCGTGGTGCATTTCACTTAGGCGGCTTTTACAGGGGCAAACTGATTTCCATAGCTTCATTCCACCAGGCCGAGCACTCGGAACTCCAAGGCCAGAAACAGTACCAGCTCCGAGGTATGGCTACCTTGGAAGGTTATCGTGAGCAGAAAGCGGGATCAACTCTAGTTAAACACGCTGAAGAAATCCTTCGTAAGAGGGGGGCGGACATGCTTTGGTGTAATGCGCGGACATCCGCCTCAGGCTACTACAAAAAGTTAGGCTTCAGCGAGCAGGGAGAGATATTTGACACGCCGCCAGTAGGACCTCACATCCTGATGTATAAAAGGATCACATAA
modifications: Synthetic nucleic acid sequence; CDS (1)...(441); 18-28D9b
Question: With B3 as the molecule, how does the “effect of growth temperature on glyphosate tolerance” value (maize plants) read?
Answer: Its value is “not adversely effected”.

B4: 22-15B4 M1MA: 22-15B4 with one alanine inserted between Met1 and Ile2, SEQ ID NO:946 (protein)
chain: MAIEVKPINAEDTYDLRHRVLRPNQPIEACMFDSDLMRSAFHLGGFYGGKLISVASFHQAEHTELQGQKQYQLRGVATLEGYREQKAGSSLVKHAEEILRKRGVDLLWCNARTSASGYYKKLGFSEQGEVFDTPPVGPHILMYKRIT
modifications: 22-15B4 M1MA
Question: Which “kinetics compared to the unmodified enzyme” value [6] does the source give for B4 here?
Answer: The value was “essentially unaltered kinetics”.

B5: GAT4620: altered gat coding sequence encoding 25-8H7 M1MA; Ala codon inserted, first 7 codons more frequently utilized, Ser 62 and Arg 111 changed (nucleic acid)
DNA: ATGGCTATTGAGGTTAAACCTATTAACGCAGAGGATACCTATGACCTAAGGCATAGAGTCCTCAGACCAAACCAGCCGATAGAAGCGTGTATGTTTGAAAGCGATTTAACGCGTAGTGCATTTCACTTAGGCGGCTTCTACGGGGGCAAACTGATTTCCGTCGCTTCATTCCACCAGGCCGAGCACTCTGAACTTCAAGGCAAGAAACAGTACCAGCTTCGAGGTGTGGCTACCTTGGAAGGTTATCGTGAGCAGAAGGCGGGTTCCAGTCTAGTTAAACACGCTGAAGAAATTCTACGTAAGAGGGGGGCGGACATGATTTGGTGTAATGCGAGGACATCTGCCTCAGGCTACTACAGAAAGTTAGGCTTCAGCGAGCAGGGAGAGGTATTCGACACGCCGCCAGTAGGACCTCACATCCTGATGTATAAAAGGATCACATAA
modifications: Synthetic nucleic acid sequence GAT4620; CDS (1)...(444): encodes 25-8H7 M1MA (SEQ ID NO:950)
notes: Ala codon inserted, first 7 codons more frequently utilized, Ser 62 and Arg 111 changed
Question: Which “level of GAT protein accumulated compared to the unmodified GAT25-8H7/4618 gene” value [5] does the source give for B5 here?
Answer: Its value is “comparable”.

B6: 22-15B4 M1MAA: 22-15B4 with two alanines inserted between Met1 and Ile2, SEQ ID NO:948 (protein)
chain: MAAIEVKPINAEDTYDLRHRVLRPNQPIEACMFDSDLMRSAFHLGGFYGGKLISVASFHQAEHTELQGQKQYQLRGVATLEGYREQKAGSSLVKHAEEILRKRGVDLLWCNARTSASGYYKKLGFSEQGEVFDTPPVGPHILMYKRIT
modifications: 22-15B4 M1MAA
Question: With B6 as the molecule, how does the “kinetics compared to the unmodified enzyme” value [6] read?
Answer: The value was “reduced kcat”.
